# Measurements published in US20110160265A1, “METHOD OF TREATING MOTOR DISORDERS WITH ALPHA-2B ADRENERGIC RECEPTOR AGONISTS” (priority 2007, published 2011).
# What was measured:
# [1] = tested on: mice; assay: Amphetamine-induced hyperlocomotion (open field); format: in vivo; settings: drug 2 amphetamine SC
# Procedure: Table 2, below, indicates the locomotor responses of mice treated with various combinations of alpha-2B receptor agonists and the psychostimulant amphetamine. Drug 1 was administered 30 minutes after the animal was placed in the open field. Drug 2 was administered subcutaneously (SC) at 45 minutes after the animal was placed in the open field (15 minutes after drug 1). AUC indicates the total amount of locomotor activity after administration of drug 2. “% decrease activity” indicates the percentage decrease in total activity relative to the Vehicle+Amphetamine group. ° indicates significant difference (P<0.05) relative to Vehicle+Amphetamine treated animals. * indicates significant difference (P<0.05) relative to Vehicle+Vehicle treated animals.
# (§1) Amphetamine- or cocaine-induced hyperactivity. Mice were placed in an open field apparatus (FlexField, San Diego Instruments, San Diego, Calif.). After 30 minutes of habituation, they received a vehicle or haloperidol injection or injection of alpha-2B receptor agonist followed by an injection of amphetamine (2 mg/kg, s.c.) or cocaine (10 mg/kg, i.p.) at minute 45. Their activity levels were subsequently measured for another 1 hour post-injection. Total activity over each 5 minute bin (21 total bins) was added to establish activity curve over the 105 minute testing.
# (§2) For i.p. administration, the compounds are formulated in H2O with 0.5% DMSO and given in a volume of 1 ml/kg body weight by injecting into the intraperitoneal cavity. For p.o. administration, the compounds are formulated in H2O with 0.5% DMSO and given in a volume of 2 ml/kg body weight using a 25-gauge, 1.5 inch gavage needle that is slowly inserted through the esophagus into the stomach.
# [2] = tested on: mice; assay: Cocaine-induced hyperlocomotion (open field); format: in vivo; settings: drug 2 cocaine SC; for % DECREASE ACTIVITY: relative to Vehicle+Cocaine
# Procedure: Table 3, below, indicates the locomotor responses of mice treated with various combinations of alpha-2B receptor agonists and the psychostimulant cocaine. Drug 1 was administered 30 minutes after the animal was placed in the open field. Drug 2 was administered subcutaneously (SC) at 45 minutes after the animal was placed in the open field (15 minutes after drug 1). AUC indicates the total amount of locomotor activity after administration of drug 2. “% decrease activity” indicates the percentage decrease in total activity relative to the Vehicle+Cocaine group. ° indicates significant difference (P<0.05) relative to Vehicle+Cocaine treated animals. * indicates significant difference (P<0.05) relative to Vehicle+Vehicle treated animals.
# as §1, §2
# [3] = tested on: nigrostriatal-lesioned rats; assay: Nigrostriatal-lesion-induced rotational behavior following amphetamine administration; format: in vivo; settings: relative to Vehicle+Amphetamine, drug 2 amphetamine SC
# Procedure: Table 4, below, indicates the changes in rotational behavior in nigrostriatal-lesioned rats treated with various alpha-2B receptor agonists and the psychostimulant amphetamine. Drug 1 was administered 15 minutes before amphetamine, and 10 minutes post-amphetamine, the animals were placed into the rotometer for 30 or 60 minutes. “% decrease rotations” indicates the percentage decrease in total rotations relative to the Vehicle+Amphetamine group. ^⋄ indicates significant difference (P<0.05) relative to Vehicle+Amphetamine treated animals. * indicates significant difference (P<0.05) relative to Vehicle+Vehicle treated animals.
# Amphetamine-induced rotational behavior. Pre-Apomorphine-screened (rotated) rats (with lesions ≧95% DA cell loss) were purchased from Charles Rivers Laboratories. Animals were given ˜4 days to acclimate prior to testing. All animals weighted 250-300 g at the beginning of the study. Animals were treated with various combinations of vehicle or alpha-2B receptor agonist and amphetamine.
# Vehicle or alpha-2B receptor agonist was administered (p.o.) 15 minutes before amphetamine (2 mg/kg s.c.). Rotational behavior was assessed 15 minutes post-amphetamine administration and was monitored for 60 minutes using a Rotometer system from San Diego Instruments (San Diego, Calif.).
# as §2
# [4] = target: T1, alpha-2A receptor (Homo sapiens, UniProt P08913); assay: Alpha-2A receptor activity (efficacy relative to brimonidine); format: cell-based; settings: in words; b7: lacks significant activity = less than 40% of the efficacy of brimonidine at alpha-2A
# T1 sequence (P08913 1-465): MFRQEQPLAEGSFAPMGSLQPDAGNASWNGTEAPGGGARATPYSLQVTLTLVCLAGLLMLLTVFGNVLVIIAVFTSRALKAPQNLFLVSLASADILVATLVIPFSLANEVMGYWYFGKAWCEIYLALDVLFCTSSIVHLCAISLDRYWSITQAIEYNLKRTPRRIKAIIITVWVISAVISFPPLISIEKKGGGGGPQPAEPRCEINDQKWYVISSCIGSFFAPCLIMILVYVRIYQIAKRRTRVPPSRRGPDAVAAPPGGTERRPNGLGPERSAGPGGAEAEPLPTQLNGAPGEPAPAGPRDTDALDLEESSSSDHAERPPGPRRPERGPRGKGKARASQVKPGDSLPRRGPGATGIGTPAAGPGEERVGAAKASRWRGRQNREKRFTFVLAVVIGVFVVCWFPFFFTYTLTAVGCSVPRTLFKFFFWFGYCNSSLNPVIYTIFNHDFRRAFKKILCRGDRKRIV
# Text: The methods of the present invention use alpha-2 agonists lacking significant activity at the alpha-2A receptor subtype. An agonist lacks significant alpha-2A receptor activity if the agonist has less than 40% of the efficacy of brimonidine at the alpha-2A receptor subtype. Compounds of the invention include, therefore, alpha-2B receptor agonists lacking significant alpha-2A activity; alpha 2B/2C receptor agonists lacking significant alpha-2A activity; and alpha-2C receptor agonists lacking significant alpha-2A activity.
# Efficacy, also known as intrinsic activity, is a measure of maximal receptor activation achieved by a compound and can be determined using any accepted assay of alpha-adrenergic receptor activation, such as a cAMP or Receptor Selection and Amplification Technology (RSAT). Efficacy is represented as a ratio or percentage of the maximal effect of the drug to the maximal effect of a standard agonist for each receptor subtype. Brimonidine, itself an alpha-2B receptor agonist (it is has 100% the efficacy of brimonidine at the alpha-2B adrenergic receptor), is used as the standard agonist for the alpha-2B adrenergic receptors.
# Agonist activity can be characterized using any of a variety of routine assays, including, for example, Receptor Selection and Amplification Technology (RSAT) assays (Messier et al., Pharmacol. Toxicol. 76:308-11 (1995); cyclic AMP assays (Shimizu et al., J. Neurochem. 16:1609-1619 (1969)); and cytosensor microphysiometry assays (Neve et al., J. Biol. Chem. 267:25748-25753 (1992)). Such assays generally are performed using cells that naturally express only a single alpha-adrenergic receptor subtype, or using transfected cells expressing a single recombinant alpha-adrenergic receptor subtype. The adrenergic receptor can be a human receptor or homolog of a human receptor having a similar pharmacology.
# The RSAT assay measures receptor-mediated loss of contact inhibition resulting in selective proliferation of receptor-containing cells in a mixed population of confluent cells. The increase in cell number is assessed with an appropriate detectable marker gene such as beta-galactosidase, if desired, in a high throughput or ultra high throughput assay format. Receptors that activate the G protein, Gq, elicit the proliferative response. Alpha-adrenergic receptors, which normally couple to Gi, activate the RSAT response when coexpressed with a hybrid Gq protein containing a Gi receptor recognition domain, designated Gq/i5. Conklin et al., Nature 363:274-6 (1993)).
# As an example, an RSAT assay can be performed essentially as follows. NIH-3T3 cells are plated at a density of 2×10^6 cells in 15 cm dishes and maintained in Dulbecco's modified Eagle's medium supplemented with 10% calf serum. One day later, cells are cotransfected by calcium phosphate precipitation with mammalian expression plasmids encoding p-SV-β-galactosidase (5-10 μg), receptor (1-2 μg) and G protein (1-2 μg). Carrier DNA, for example 40 μg salmon sperm DNA, also can be included to increase transfection efficiency. Fresh media is added on the following day; one to two days later, cells are harvested and frozen in 50 assay aliquots. Transfected cells are thawed, and 100 μl of cells added to 100 μl aliquots of compound to be tested, with various concentrations assayed in triplicate, for example, in 96-well plates. Incubation continues for 72 to 96 hours at 37° C. After washing with phosphate-buffered saline, β-galactosidase activity is determined by adding 200 μl of chromogenic substrate (3.5 mM O-nitrophenyl-β-D-galactopyranoside/0.5% NP-40 in phosphate buffered saline), incubating overnight at 30° C., and measuring optical density at 420 nm. The absorbancy is a measure of enzyme activity, which depends on cell number and reflects receptor-mediated cell proliferation. The EC50 and maximal effect (i.e., efficacy) of each drug at each receptor is determined.
structure (smiles),measurement,setting,value
OCCNC(=S)NCc1cccc(Cl)c1F [Compound A],% DECREASE ACTIVITY REL TO VEH + AMPH,[1]; drug 1 0.03 mg/kg IP,55% ^⋄
same,TOTAL ACTIVITY POST-AMPHETAMINE (AUC),[1]; drug 1 0.03 mg/kg IP,5524.8 ± 624.2
same,TOTAL ACTIVITY POST-COCAINE (AUC),[2]; drug 1 0.03 mg/kg PO,8469 ± 935.01
same,TOTAL ACTIVITY POST-COCAINE (AUC),[2]; drug 1 0.1 mg/kg PO,6457.67 ± 754.0
same,TOTAL ACTIVITY POST-COCAINE (AUC),[2]; drug 1 0.3 mg/kg PO,3543 ± 648.02
same,% DECREASE ACTIVITY,[2]; drug 1 0.03 mg/kg PO,19% * ^
same,% DECREASE ACTIVITY,[2]; drug 1 0.1 mg/kg PO,38% ^⋄ *
same,% DECREASE ACTIVITY,[2]; drug 1 0.3 mg/kg PO,66% ^⋄
same,% DECREASE ROTATIONS,[3]; drug 1 0.03 mg/kg PO,65% ^⋄ *
same,alpha-2A receptor activity,[4],lack significant alpha-2A receptor activity
c1ccc2c(c1)CC[C@@H](Cc1c[nH]cn1)C2 [Compound B],% DECREASE ACTIVITY REL TO VEH + AMPH,[1]; drug 1 0.03 mg/kg IP,68% ^⋄
same,TOTAL ACTIVITY POST-AMPHETAMINE (AUC),[1]; drug 1 0.03 mg/kg IP,3940.5 ± 573.7
same,% DECREASE ACTIVITY REL TO VEH + AMPH,[1]; drug 1 1 mg/kg IP,64% ^⋄
same,TOTAL ACTIVITY POST-AMPHETAMINE (AUC),[1]; drug 1 1 mg/kg IP,4462.0 ± 957.5
same,% DECREASE ROTATIONS,[3]; drug 1 0.03 mg/kg PO,29% * ^
same,alpha-2A receptor activity,[4],lack significant alpha-2A receptor activity
Clc1cccc(C(c2ccccc2)c2c[nH]cn2)c1Cl (centres unmarked) [Compound C],% DECREASE ACTIVITY REL TO VEH + AMPH,[1]; drug 1 0.03 mg/kg IP,52% ^⋄
same,TOTAL ACTIVITY POST-AMPHETAMINE (AUC),[1]; drug 1 0.03 mg/kg IP,6348.0 ± 423.4
same,alpha-2A receptor activity,[4],lack significant alpha-2A receptor activity
S=c1[nH]cc(CC2CC=CC2)[nH]1 [Compound D],% DECREASE ACTIVITY REL TO VEH + AMPH,[1]; drug 1 0.01 mg/kg PO,14% *
same,TOTAL ACTIVITY POST-AMPHETAMINE (AUC),[1]; drug 1 0.01 mg/kg PO,10664.0 ± 786.2
same,% DECREASE ACTIVITY REL TO VEH + AMPH,[1]; drug 1 0.03 mg/kg PO,51% ^⋄
same,TOTAL ACTIVITY POST-AMPHETAMINE (AUC),[1]; drug 1 0.03 mg/kg PO,5987.5 ± 1369.
same,% DECREASE ACTIVITY REL TO VEH + AMPH,[1]; drug 1 0.1 mg/kg PO,43% ^⋄ *
same,TOTAL ACTIVITY POST-AMPHETAMINE (AUC),[1]; drug 1 0.1 mg/kg PO,6992.5 ± 693.1
same,% DECREASE ACTIVITY REL TO VEH + AMPH,[1]; drug 1 1 mg/kg PO,62% ^⋄
same,TOTAL ACTIVITY POST-AMPHETAMINE (AUC),[1]; drug 1 1 mg/kg PO,4650.0 ± 628.9
same,% DECREASE ROTATIONS,[3]; drug 1 0.1 mg/kg PO,51% ^⋄ *
same,% DECREASE ROTATIONS,[3]; drug 1 1 mg/kg PO,60% ^⋄ *
same,alpha-2A receptor activity,[4],lack significant alpha-2A receptor activity
Clc1cccc(CNC2=NCCN2)c1Cl [Compound F],% DECREASE ACTIVITY REL TO VEH + AMPH,[1]; drug 1 0.03 mg/kg IP,26% ^⋄ *
same,TOTAL ACTIVITY POST-AMPHETAMINE (AUC),[1]; drug 1 0.03 mg/kg IP,9933.0 ± 1898.7
same,% DECREASE ACTIVITY REL TO VEH + AMPH,[1]; drug 1 0.3 mg/kg IP,29% ^⋄ *
same,TOTAL ACTIVITY POST-AMPHETAMINE (AUC),[1]; drug 1 0.3 mg/kg IP,9442.3 ± 1306.7
same,% DECREASE ACTIVITY REL TO VEH + AMPH,[1]; drug 1 1 mg/kg IP,45% ^⋄
same,TOTAL ACTIVITY POST-AMPHETAMINE (AUC),[1]; drug 1 1 mg/kg IP,7437.8 ± 1812.4
same,% DECREASE ACTIVITY REL TO VEH + AMPH,[1]; drug 1 3 mg/kg IP,62% ^⋄
same,TOTAL ACTIVITY POST-AMPHETAMINE (AUC),[1]; drug 1 3 mg/kg IP,5169.0 ± 1481.4
same,alpha-2A receptor activity,[4],lack significant alpha-2A receptor activity
"O=C(CCCN1CCC(O)(c2ccc(Cl)cc2)CC1)c1ccc(F)cc1 [Haloperidol, reference compound]",% DECREASE ACTIVITY REL TO VEH + AMPH,[1]; drug 1 0.2 mg/kg IP,91% ^⋄ *
same,TOTAL ACTIVITY POST-AMPHETAMINE (AUC),[1]; drug 1 0.2 mg/kg IP,1123.2 ± 280.1
